Laboratory results as given in patent US9833448B2, “Piperidinone carboxamide azaindane CGRP receptor antagonists” (Merck Sharp & Dohme Corp., priority 2010, dated 2017).
Structures can show the parent of a compound that is named as a salt. Where two headings read alike, the source gives them in different places. Ends that are not written are not given here.

Legend:
facial blood flow [1] = settings: marmoset (Doods et al. 2000); cited from earlier work
[2] = tested on: acute attacks of migraine; settings: cited from earlier work
[3] = tested on: headache induced by CGRP infusion; settings: control group (Petersen et al. 2005); cited from earlier work
[4] = molecular target: recombinant human CL receptor/RAMP1 (Homo sapiens (Human), UniProt O60894+Q16602); assay: Recombinant receptor binding assay (125I-hCGRP)
Chain of recombinant human CL receptor/RAMP1 (Q16602 23-461): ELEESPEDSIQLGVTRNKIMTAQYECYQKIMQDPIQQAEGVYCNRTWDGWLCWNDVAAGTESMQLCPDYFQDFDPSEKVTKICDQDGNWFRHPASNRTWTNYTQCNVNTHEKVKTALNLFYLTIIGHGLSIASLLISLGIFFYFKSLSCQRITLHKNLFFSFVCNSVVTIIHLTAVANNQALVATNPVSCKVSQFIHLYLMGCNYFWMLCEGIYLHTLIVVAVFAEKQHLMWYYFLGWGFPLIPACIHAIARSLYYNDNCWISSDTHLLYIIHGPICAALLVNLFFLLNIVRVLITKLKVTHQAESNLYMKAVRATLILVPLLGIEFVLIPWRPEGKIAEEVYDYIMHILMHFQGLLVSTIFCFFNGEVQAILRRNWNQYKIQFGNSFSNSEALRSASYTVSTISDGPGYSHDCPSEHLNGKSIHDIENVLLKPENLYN
Chain of recombinant human CL receptor/RAMP1 (O60894 27-148): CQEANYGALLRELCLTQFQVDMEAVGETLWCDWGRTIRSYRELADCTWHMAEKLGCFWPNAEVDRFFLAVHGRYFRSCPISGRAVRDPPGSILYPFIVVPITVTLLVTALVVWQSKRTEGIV
Procedure: Human CL receptor (Genbank accession number L76380) was subcloned into the expression vector pIREShyg2 (BD Biosciences Clontech) as a 5′NheI and 3′ PmeI fragment. Human RAMP1 (Genbank accession number AJ001014) was subcloned into the expression vector pIRESpuro2 (BD Biosciences Clontech) as a 5′NheI and 3′NotI fragment. HEK 293 cells (human embryonic kidney cells; ATCC #CRL-1573) were cultured in DMEM with 4.5 g/L glucose, 1 mM sodium pyruvate and 2 mM glutamine supplemented with 10% fetal bovine serum (FBS), 100 units/mL penicillin and 100 µg/mL streptomycin, and maintained at 37° C. and 95% humidity. Cells were subcultured by treatment with 0.25% trypsin with 0.1% EDTA in HBSS. Stable cell line generation was accomplished by co-transfecting 10 μg of DNA with 30 μg Lipofectamine 2000 (Invitrogen) in 75 cm^2 flasks. CL receptor and RAMP1 expression constructs were co-transfected in equal amounts. Twenty-four hours after transfection the cells were diluted and selective medium (growth medium+300 μg/mL hygromycin and 1 μg/mL puromycin) was added the following day. A clonal cell line was generated by single cell deposition utilizing a FACS Vantage SE (Becton Dickinson). Growth medium was adjusted to 150 μg/mL hygromycin and 0.5 μg/mL puromycin for cell propagation.
Recombinant Receptor Binding Assay:
The cell suspension was disrupted with a laboratory homogenizer and centrifuged at 48,000 g to isolate membranes. The pellets were resuspended in harvest buffer plus 250 mM sucrose and stored at −70° C. For binding assays, 20 μg of membranes were incubated in 1 mL binding buffer (10 mM HEPES, pH 7.4, 5 mM MgCl2, and 0.2% BSA) for 3 h at room temperature containing 10 pM ^125I-hCGRP (GE Healthcare) and antagonist. The assay was terminated by filtration through 96-well GFB glass fiber filter plates (PerkinElmer) that had been blocked with 0.05% polyethyleneimine. The filters were washed 3 times with ice-cold assay buffer (10 mM HEPES, pH 7.4, and 5 mM MgCl2). Scintillation fluid was added and the plates were counted on a Topcount (Packard). Non-specific binding was determined and the data analysis was carried out with the apparent dissociation constant (Ki) determined by using a non-linear least squares fitting the bound CPM data to the equation below:
[formula] Where Y is observed CPM bound, Ymax is total bound counts, Ymin is non specific bound counts, (Ymax−Ymin) is specific bound counts, % Imax is the maximum percent inhibition, % I min is the minimum percent inhibition, radiolabel is the probe, and the Kd is the apparent dissociation constant for the radioligand for the receptor as determined by hot saturation experiments.

facial blood flow [5] = settings: rat (Escott et al. 1995); cited from earlier work
middle meningeal artery = settings: rats, prior administration (Williamson et al. 1997); cited from earlier work
[6] = exemplary compounds of the invention, 10 pM 125I-hCGRP, membranes of HEK 293 cells, read-out: Ki
[7] = analogues disclosed in U.S. Pat. No. 7,390,798 and US 2010/0179166, read-out: Ki (CGRP binding data)

**Q.** Which “effect on increase in facial blood flow” value (facial blood flow [1]) does the source give for NCCCC[C@H](NC(=O)[C@@H](Cc1cc(Br)c(O)c(Br)c1)NC(=O)N1CCC(N2Cc3ccccc3NC2=O)CC1)C(=O)N1CCN(c2ccncc2)CC1 [BIBN4096BS] here?
**A.** The value was “could be blocked”.

**Q.** What about the “effectiveness in treating acute attacks of migraine” value ([2]; clinical trials (Olesen et al. 2004)) of the same molecule?
**A.** The value was “effective in treating acute attacks of migraine”.

**Q.** What about the “prevention of headache induced by CGRP infusion” value [3] of the same molecule?
**A.** The value was “able to prevent headache induced by CGRP infusion”.

**Q.** For C[C@@H]1[C@H](c2ccccc2)C[C@H](NC(=O)c2cnc3c(c2)C[C@@]2(C3)C(=O)Nc3ncccc32)C(=O)N1CC(F)(F)F [Example 1, (6S)—N-[(3S,5S,6R)-6-Methyl-2-oxo-5-phenyl-1-(2,2,2-trifluoroethyl)piperidin-3-yl]-2′-oxo-1′,2′,5,7-tetrahydrospiro[cyclopenta[b]pyridine-6,3′-pyrrolo[2,3-b]pyridine]-3-carboxamide], which Ki [4, 6] is on record?
**A.** Its Ki is 0.067 nM.

**Q.** For Cc1ccccc1[C@@H]1C[C@H](NC(=O)c2cnc3c(c2)C[C@@]2(C3)C(=O)Nc3ncccc32)C(=O)N(CC(F)(F)F)[C@@H]1C [Example 3, (6S)—N-[(3 S,5S,6R)-6-Methyl-5-(2-methylphenyl)-2-oxo-1-(2,2,2-trifluoroethyl)piperidin-3-yl]-2′-oxo-1′,2′,5,7-tetrahydrospiro[cyclopenta[b]pyridine-6,3′-pyrrolo[2,3-b]pyridine]-3-carboxamide], which Ki [4, 6] is on record?
**A.** Its Ki is 0.067 nM.

**Q.** For C[C@@H]1[C@H](c2cc(F)cc(F)c2F)C[C@H](NC(=O)c2cnc3c(c2)C[C@@]2(C3)C(=O)Nc3ncccc32)C(=O)N1CC(F)(F)F [Example 5, (6S)—N-[(3S,5S,6R)-6-Methyl-2-oxo-1-(2,2,2-trifluoroethyl)-5-(2,3,5-trifluorophenyl)piperidin-3-yl]-2′-oxo-1′,2′,5,7-tetrahydrospiro[cyclopenta[b]pyridine-6,3′-pyrrolo[2,3-b]pyridine]-3-carboxamide dihydrochloride], which Ki [4, 6] is on record?
**A.** Its Ki is 0.017 nM.

**Q.** Which Ki [4, 6] does the source give for O=C(N[C@H]1C[C@@H](c2ccccc2F)CN(CC(F)(F)F)C1=O)c1cnc2c(c1)C[C@@]1(C2)C(=O)Nc2ncccc21 [Example 6] here?
**A.** The Ki was 0.21 nM.

**Q.** With CN1C[C@H](c2cccc(F)c2F)CC[C@@H](NC(=O)c2ccc3c(c2)CC2(C3)C(=O)Nc3ncccc32)C1=O (stereo partly drawn) [Example 8 from U.S. Pat. No. 7,390,798] as the molecule, how does the Ki [4, 7] read?
**A.** The Ki was 7.4 nM.

**Q.** For CC(C)(O)c1cnc2n1C[C@H](c1cccc(F)c1F)CC[C@H]2NC(=O)c1cc2c(cn1)CC1(C2)C(=O)Nc2ncccc21 (stereo partly drawn) [Example 8 from US 2010/0179166], which Ki [4, 7] is on record?
**A.** The Ki was 4.3 nM.

**Q.** Which Ki [4, 7] does the source give for O=C(N[C@@H]1CC[C@@H](c2cccc(F)c2F)CN(CC(F)(F)F)C1=O)c1ccc2c(c1)CC1(C2)C(=O)Nc2ncccc21 (stereo partly drawn) [Example 9 from U.S. Pat. No. 7,390,798] here?
**A.** The Ki was 1.9 nM.

**Q.** For CC(C)(O)CN1C[C@H](c2cccc(F)c2F)CC[C@@H](NC(=O)c2ccc3c(c2)CC2(C3)C(=O)Nc3ncccc32)C1=O (stereo partly drawn) [Example 10 from U.S. Pat. No. 7,390,798], which Ki [4, 7] is on record?
**A.** The Ki was 1.7 nM.

**Q.** Which Ki [4, 6] does the source give for O=C(N[C@H]1C[C@@H](c2c(F)cccc2Cl)CN(CC(F)(F)F)C1=O)c1cnc2c(c1)C[C@@]1(C2)C(=O)Nc2ncccc21 [Example 11] here?
**A.** Its Ki is 0.25 nM.

**Q.** With O=C(N[C@H]1C[C@@H](c2cccc(F)c2F)CN(CC2CCC2)C1=O)c1cnc2c(c1)C[C@@]1(C2)C(=O)Nc2ncccc21 [Example 17] as the molecule, how does the Ki [4, 6] read?
**A.** The Ki was 0.055 nM.

**Q.** For C[C@@H]1[C@H](c2ccccc2)C[C@H](NC(=O)c2cnc3c(c2)C[C@@]2(C3)C(=O)Nc3ncc(C#N)cc32)C(=O)N1CC(F)(F)F [Example 30], which Ki [4, 6] is on record?
**A.** The Ki was 0.14 nM.

**Q.** Which Ki [4, 6] does the source give for C[C@@H]1[C@H](c2ccccc2)C[C@H](NC(=O)c2cnc3c(c2)C[C@@]2(C3)C(=O)Nc3ncncc32)C(=O)N1CC(F)(F)F [Example 31] here?
**A.** Its Ki is 0.17 nM.

**Q.** With O=C(N[C@@H]1CC[C@@H](c2cccc(F)c2F)CN(CC(F)(F)F)C1=O)N1CCC(n2c(=O)[nH]c3ncccc32)CC1 [telcagepant] as the molecule, how does the antimigraine effectiveness ([2]; phase III clinical trials, orally bioavailable) read?
**A.** Its antimigraine effectiveness is “shown antimigraine effectiveness”.

**Q.** What does the source list for “CGRP (8-37) (VTHRLAGLLSRSGGVVKNNFVPTNVGSKAF; ends and bridges not checked; UniProt P06881 90-119, looked up, fragment) [a peptide CGRP receptor antagonist]”?
**A.** effect on increased facial blood flow (facial blood flow [5]): inhibited; effect on increase of middle meningeal artery diameter (middle meningeal artery): blocked
